Reference: patent publication US4317768A, “Dihydropyridine derivatives as stabilizers for vinyl chloride polymers” (priority 1977, dated 1982)

What was measured:
[1] = Polarographic study of the oxidation potential; type: physicochemical; conditions: acetonitrile, 0.1 M lithium perchlorate, vitrous carbon electrode, calomel reference
Source text: By a polarographic study of their oxidation potential, compared to well-known antioxidants such as 2,6-diterbutyl-4-methyl-phenol, 2-terbutyl-4-methoxy-phenol, 4-methoxy-phenol and hydroquinone.
Reference electrode: Calomel electrode containing a saturated solution of anhydrous lithium perchlorate as bridge liquid.
Working electrode: Vitrous carbon rotating electrode (2,500 r.p.m.)
Counter-electrode: Platinum electrode
Acetonitrile containing less than 0.1% of water and presenting no polarographic waves between -2.5 V and +2.5 V.
Anhydrous lithium perchlorate containing less than 1% of water.
A 0.1 M solution of lithium perchlorate in acetonitrile, treated and preserved on a 4 A molecular sieve.
Amplitude of exploration: 0 to 2 V
Speed of exploration: 10 mV/second
Sensitivity: 1.25 μA to 50 μA
Mean concentration: about 0.3×10^-3 mol/liter
Between each measurement, the vitrous carbon electrode and the platinum electrode were carefully cleaned with Joseph paper.

[2] = Antioxidant power on a polyvinyl chloride resin, GARDNER method, 185° C.
[3] = as above; remark: listed apart in the source
Procedure: (§1) By direct comparison, on a polyvinyl chloride resin, of the antioxidant power of Compound 1 of the invention and that of an antioxidant known as one of the most valuable and frequently used in polyvinyl chloride, namely 2,6-diterbutyl-4-methyl-phenol.
(§2) The antioxidant power of Compound 1 was compared to that of 2,6-diterbutyl-4-methyl-phenol (Compound 2) by using the following resin:
The study was carried out according to the GARDNER method, the samples being removed from an oven at 185° C. every 10 minutes over a period of 80 minutes.
The signs + and - have the same meanings as in the previous table and > 2 means that the coloration lies between 2 and 2+.

[4] = Antioxidant power on a polyvinyl chloride resin, Metrastat oven, 210° C.
Procedure: as §1, §2
The same trials were carried out in a Metrastat oven at 210° C.

Structure (SMILES): Cc1cc(C(C)(C)C)c(O)c(C(C)(C)C)c1 [Compound Z, 2,6-diterbutyl-4-methyl-phenol, reference compound]
- Oxidation potential [1]: 1.11 ± 0.02 volts
- antioxidant power, Compound 1 vs Compound Z, in words [2]: no concentration in Compound Z gives the best results obtained with Compound 1
- coloration, GARDNER scale ([3]; 0.05 part, 0 min): > 1
- coloration, GARDNER scale ([3]; 0.05 part, 40 min): > 6
- coloration, GARDNER scale ([3]; 0.05 part, 50 min): 7
- coloration, GARDNER scale ([3]; 0.05 part, 60 min): 7
- coloration, GARDNER scale ([3]; 0.05 part, 70 min): 8
- coloration, GARDNER scale ([3]; 0.05 part, 80 min): Burnt
- coloration, GARDNER scale ([3]; 0.1 part, 0 min): > 1
- coloration, GARDNER scale ([3]; 0.1 part, 30 min): > 5
- coloration, GARDNER scale ([3]; 0.1 part, 40 min): > 6
- coloration, GARDNER scale ([3]; 0.1 part, 50 min): 7
- coloration, GARDNER scale ([3]; 0.1 part, 60 min): 7
- coloration, GARDNER scale ([3]; 0.1 part, 70 min): 8
- coloration, GARDNER scale ([3]; 0.2 part, 0 min): > 1
- coloration, GARDNER scale ([3]; 0.2 part, 40 min): > 6
- coloration, GARDNER scale ([3]; 0.2 part, 50 min): 7
- coloration, GARDNER scale ([3]; 0.2 part, 60 min): 7
- coloration, GARDNER scale ([3]; 0.2 part, 70 min): 8
- coloration, GARDNER scale ([3]; 0.3 part, 20 min): > 2
- coloration, GARDNER scale ([3]; 0.3 part, 30 min): 6
- coloration, GARDNER scale ([3]; 0.3 part, 40 min): 7
- coloration, GARDNER scale ([3]; 0.3 part, 50 min): 8
- coloration, GARDNER scale ([3]; 0.3 part, 60 min): 8
- coloration, GARDNER scale ([3]; 0.4 part, 20 min): 3
- coloration, GARDNER scale ([3]; 0.4 part, 30 min): > 6
- coloration, GARDNER scale ([3]; 0.4 part, 50 min): 9
- coloration, GARDNER scale ([3]; 0.4 part, 60 min): 9
- coloration, GARDNER scale ([3]; 0.4 part, 70 min): 9
- coloration, GARDNER scale ([3]; 0.5 part, 20 min): 3
- coloration, GARDNER scale ([3]; 0.5 part, 30 min): > 6
- coloration, GARDNER scale ([3]; 0.5 part, 40 min): > 7
- coloration, GARDNER scale ([3]; 0.5 part, 60 min): 8
- coloration, GARDNER scale ([3]; 0.5 part, 70 min): 8
- coloration, GARDNER scale ([3]; 1.0 part, 20 min): > 3
- coloration, GARDNER scale ([3]; 1.0 part, 30 min): 8
- coloration, GARDNER scale ([3]; 1.0 part, 40 min): 8
- coloration, GARDNER scale ([3]; 1.0 part, 50 min): 8
- coloration, GARDNER scale ([3]; 1.0 part, 60 min): 9
- coloration, GARDNER scale ([3]; 1.0 part, 70 min): 9
- time of burning (B) ([4]; 0.05 part): 38 '
- coloration, GARDNER scale ([4]; 0.05 part, 10 to 20 min): 2
- coloration, GARDNER scale ([4]; 0.05 part, 30 to 35 min): 10
- coloration, GARDNER scale ([4]; 0.05 part, 35 to 40 min): > 10
- time of burning (B) ([4]; 0.1 part): 39 '
- coloration, GARDNER scale ([4]; 0.1 part, 10 to 20 min): 2
- coloration, GARDNER scale ([4]; 0.1 part, 30 to 35 min): 11
- coloration, GARDNER scale ([4]; 0.1 part, 35 to 40 min): > 11
- time of burning (B) ([4]; 0.2 part): 39 '
- coloration, GARDNER scale ([4]; 0.2 part, 10 to 20 min): 2
- coloration, GARDNER scale ([4]; 0.2 part, 30 to 35 min): 11
- coloration, GARDNER scale ([4]; 0.2 part, 35 to 40 min): > 11
- time of burning (B) ([4]; 0.3 part): 39 '
- coloration, GARDNER scale ([4]; 0.3 part, 0 to 10 min): < 1
- coloration, GARDNER scale ([4]; 0.3 part, 25 to 30 min): 3
- coloration, GARDNER scale ([4]; 0.3 part, 30 to 35 min): 9
- coloration, GARDNER scale ([4]; 0.3 part, 35 to 40 min): < 10
- time of burning (B) ([4]; 0.4 part): 38 '
- coloration, GARDNER scale ([4]; 0.4 part, 10 to 20 min): 2
- coloration, GARDNER scale ([4]; 0.4 part, 20 to 25 min): 3
- coloration, GARDNER scale ([4]; 0.4 part, 30 to 35 min): 10
- coloration, GARDNER scale ([4]; 0.4 part, 35 to 40 min): > 10
- time of burning (B) ([4]; 0.5 part): 38 '
- coloration, GARDNER scale ([4]; 0.5 part, 10 to 20 min): 2
- coloration, GARDNER scale ([4]; 0.5 part, 20 to 25 min): 3
- time of burning (B) ([4]; 1.0 part): 38 '
- coloration, GARDNER scale ([4]; 1.0 part, 10 to 20 min): 2
- coloration, GARDNER scale ([4]; 1.0 part, 25 to 30 min): 5
- coloration, GARDNER scale ([4]; 1.0 part, 30 to 35 min): 11
- coloration, GARDNER scale ([4]; 1.0 part, 35 to 40 min): > 11
- colour of sheets, in words ([4]; from the time zero): pink-coloured sheets
